Measured values published in patent publication US8852569B2, “Prevention and treatment of itch with cysteine protease inhibition” (The General Hospital Corporation, priority 2008, dated 2014).

What was measured:
human cathepsin S = target: T1, human cathepsin S (Homo sapiens, UniProt P25774); assay: Chromogenic substrate assay, inhibition of cathepsin S by E64; format: biochemical; conditions: FIG. 1; protease 0.84 μM, E64 2 μM
T1 construct: made in house; host or cells: E. coli
Description: (§1) The concentrations of all the three proteases are at 0.84 μM and that of E64, a non-selective irreversible inhibitor of cysteine proteases, is at 2 μM […].
(§2) Papain served as a positive control cysteine protease. The cathepsin S and K were further evaluated for their capacity to activate PAR receptors as noted below.

PAR2 = assay: PAR activation by cytoplasmic calcium release in transfected HeLa cells (Fura-2 ratiometric imaging), PAR2; format: cell-based, human; conditions: FIG. 3C; cathepsin S 2 μM, E64 10 μM, fura-2 single cell imaging
Description: (§3) The responses to PAR 2 and 4 were blocked by the protease inhibitor E64 (10 μM) as a control). Other controls included vector alone and vector encoding the PAR1 receptor. Cathepsin S was added as indicated. The averages from at least three separate experiments were then combined +/−SD.
(§4) Salmon sperm (SS) DNA is used as control. The averages from at least three separate experiments were then combined +/−SD.
(§5) PAR activation observed by cytoplasmic calcium release—The four human PAR cDNAs were obtained from commercial sources and cloned into the pcDNA3.1(−) vector (INVITROGEN™ Inc.). HeLa cells were transfected with 10 μg of vector cDNA using Lipofectamine 2000 (INVITROGEN™ Inc.) and cultured for two days in 96-well glass bottom plates at 30,000 cells/well. Cells were loaded with Fura-2 as follows. The medium was aspirated and replaced with 100 μl of complete DMEM containing 2 μM Fura-2 (INVITROGEN™ Inc.) and kept at room temperature in the dark for 1 hr. The medium was again aspirated and each well received 90 μl of HEPES buffered saline (20 mM HEPES, 115 mM NaCl, 5.4 mM KCl, 2 mM CaCl2, 0.8 mM MgCl2, 13.8 mM glucose, pH 7.4). Plates were observed using a Zeiss Axiovert 200M microscope equipped with a filter wheel for monitoring excitation at 340 and 380 nm. Axiovision software, version 4.6 was used to analyze ratiometric calcium imaging of the cells. […]

PAR4 = assay: PAR activation by cytoplasmic calcium release in transfected HeLa cells (Fura-2 ratiometric imaging), PAR4; format: cell-based, human; conditions: FIG. 3C; cathepsin S 2 μM, E64 10 μM, fura-2 single cell imaging
Description: as §3, §4, §5

human cathepsin K = target: T2, human cathepsin K (Homo sapiens, UniProt P43235); assay: Chromogenic substrate assay, inhibition of cathepsin K by E64; format: biochemical; conditions: FIG. 1; protease 0.84 μM, E64 2 μM
T2 construct: made in house; host or cells: E. coli
T2 sequence (P43235 115-329): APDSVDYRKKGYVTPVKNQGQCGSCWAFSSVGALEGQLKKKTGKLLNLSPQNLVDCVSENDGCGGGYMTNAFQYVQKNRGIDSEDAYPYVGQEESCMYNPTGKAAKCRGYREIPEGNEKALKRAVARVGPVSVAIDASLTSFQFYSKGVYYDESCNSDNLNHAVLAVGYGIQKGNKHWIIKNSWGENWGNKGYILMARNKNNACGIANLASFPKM
Description: as §1, §2

T1 sequence (P25774 115-331): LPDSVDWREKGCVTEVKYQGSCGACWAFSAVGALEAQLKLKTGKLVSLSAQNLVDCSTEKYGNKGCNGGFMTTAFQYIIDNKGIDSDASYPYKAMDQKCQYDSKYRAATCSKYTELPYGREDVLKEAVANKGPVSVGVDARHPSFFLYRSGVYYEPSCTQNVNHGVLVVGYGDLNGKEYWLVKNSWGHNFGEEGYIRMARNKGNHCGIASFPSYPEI

protease activity of cathepsin S (cleavage of Z-Phe-Arg-pNA) in presence of E64 (human cathepsin S): eliminated
protease activity of cathepsin K (cleavage of Z-Phe-Arg-pNA) in presence of E64 (human cathepsin K): eliminated
SMILES: CC(C)C[C@H](NC(=O)[C@H]1O[C@@H]1C(=O)O)C(=O)NCCCCN=C(N)N (relative stereo) [E64, trans-epoxysuccinyl-L-leucylamide-(4-guanidino) butane, reference compound]
cathepsin S induced PAR2 response in presence of E64 (PAR2): blocked
cathepsin S induced PAR4 response in presence of E64 (PAR4): blocked
